In patent publication EP4005557A1, “METHOD FOR PREPARING NANOSYSTEMS” (Université de Genève, priority 2020, dated 2022):

Legend:
[1] = Contact angle measurement on a solid surface by sessile drop technique (wetting properties); format: physicochemical; details: Table 3, voriconazole series
Experimental: The contact angles of voriconazole alone, glucose, voriconazole micelle formulation and voriconazole liposome formulation on a solid surface were measured by sessile drop technique using Lorentzen and […], type 28 optical tensiometer. The purpose of measuring the contact angle is to determine the wetting properties of the formulation. Higher contact angles correspond to poor wetting whereas lower contact angle correspond to good wetting properties. Micelles and liposomes of itraconazole have been prepared according to the method described in example 1. The contact angles of itraconazole alone, glucose, itraconazole micelle formulation and itraconazole liposome formulation on a solid surface were measured by sessile drop technique using Lorentzen and […], type 28 optical tensiometer.

[2] = drug alone; no method described; cited from earlier work

C[C@@H](c1ncncc1F)[C@](O)(Cn1cncn1)c1ccc(F)cc1F [Voriconazole]
Contact angle [1]: 68.2°
Log P [2]: 1.75
